Measured values taken from patent US20240366639A1, “HETEROCYCLIC GLP-1 AGONISTS” (GASHERBRUM BIO, INC., priority 2021, published 2024).
Read-outs that look alike come from different tables or passages of the source.

Biological target: T1, GLP-1 Receptor (GLP1R) (Homo sapiens, UniProt P43220)
T1 construct: host or cells: HEK293/GLP1R/CRE-LUC
Experiment: GLP-1R agonist cAMP stimulation assay (Method 3)
Type: cell-based
Details: HEK293/GLP1R/CRE-LUC cells (HDB), Method 3, 30 min incubation
Description: Method 3: Activation of GLP-1 receptor is known to stimulate cyclic AMP (cAMP) production in cells which indicates primary coupling to the Gαs subunit of the G protein heterotrimeric complex.
To optimize functional activity directed toward Gαs coupling, a HEK293/CRE-Luc cell line developed by HDB stably expressing the GLP-1 Receptor was used, 200× concentration of compound working solutions were prepared (Agilent Technologies Bravo) with 1/2 log serial dilution in 384-well Echo LDV plate (Labcyte, Cat #LP-0200). 50 nL/well 200× concentration of compound working solutions were moved to 384-well white low volume plate (Greiner, Cat #784075) using Labcyte ECHO550. 1×10^5 cells/mL HEK293/GLP1R/CRE-LUC(HD Biosciences) cell suspensions prepared with assay buffer [DPBS containing 0.5 mM IBMX (Sigma, Cat #15879) and 0.1% BSA (GENVIEW, Cat #FA016-100 g)], 10 μL cell suspensions were added to each well of previous generated assay plate which already contains 50 nL compound at 200× concentration using ThermoFisher Multidrop Combi (1000 cells/well). Seal the plate and incubate at 37° C. with 5% CO2 for 30 min.
After incubation the cAMP assay signal was generated using cAMP dynamic 2 Kit (Cisbio). 5 μL cAMP-d2 working solution was added to each well, followed with 5 μL Anti-cAMP antibody-cryptate working solution added to each well using ThermoFisher Multidrop Combi. Incubate at room temperature for 1 hour protected from light. Read the fluorescence at 665 nm and 615 nm with Reader PerkinElmer EnVision.

[1] = read-out: GLP1R cAMP Stimulation DR: EC50 (nM) [Species: Human, Assay Cell Line: HDB]
[2] = read-out: GLP1R cAMP Stimulation DR: pEC50 (M) [Species: Human, Assay Cell Line: HDB] (converted)

T1 sequence (P43220 24-463): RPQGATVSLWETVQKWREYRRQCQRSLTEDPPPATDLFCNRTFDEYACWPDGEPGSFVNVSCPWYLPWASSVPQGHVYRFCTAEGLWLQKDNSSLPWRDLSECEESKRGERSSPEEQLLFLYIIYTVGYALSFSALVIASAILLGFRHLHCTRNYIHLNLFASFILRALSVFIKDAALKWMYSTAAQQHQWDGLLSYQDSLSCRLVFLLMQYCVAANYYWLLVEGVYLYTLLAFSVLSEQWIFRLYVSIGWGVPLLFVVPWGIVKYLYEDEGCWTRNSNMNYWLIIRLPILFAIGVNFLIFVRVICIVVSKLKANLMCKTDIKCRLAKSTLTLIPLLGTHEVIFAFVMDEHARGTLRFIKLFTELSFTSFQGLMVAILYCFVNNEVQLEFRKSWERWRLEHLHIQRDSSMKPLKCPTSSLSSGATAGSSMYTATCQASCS

Row | SMILES | EC50 [1] [nM] | EC50 [2] [nM]
1 | Cc1cc(-n2nc3c(c2-n2ccn(-c4ccc(P(C)(C)=O)nc4)c2=O)[C@H](C)N(C(=O)c2cc4cc(C5CCOCC5)ccc4n2[C@@]2(c4noc(=O)[nH]4)C[C@@H]2C)CC3)cc(C)c1F [Compound 105a, 3-((1S,2S)-1-(2-((S)-3-(3-(6-(dimethylphosphoryl)pyridin-3-yl)-2-oxo-2,3-dihydro-1H-imidazol-1-yl)-2-(4-fluoro-3,5-dimethylphenyl)-4-methyl-4,5,6,7-tetrahydro-2H-pyrazolo[4,3-c]pyridine-5-carbonyl)-5-(tetrahydro-2H-pyran-4-yl)-1H-indol-1-yl)-2-methylcyclopropyl)-1,2,4-oxadiazol-5(4H)-one] | 0.1 to 0.2 | 0.1 to 1
2 | Cc1cc(-n2nc3c(c2-n2ccn(-c4cccc(P(C)(C)=O)c4O)c2=O)[C@H](C)N(C(=O)c2cc4cc(C5CCOCC5)ccc4n2[C@@]2(c4noc(=O)[nH]4)C[C@@H]2C)CC3)cc(C)c1F [Compound 107a, 3-((1S,2S)-1-(2-((S)-3-(3-(3-(dimethylphosphoryl)-2-hydroxyphenyl)-2-oxo-2,3-dihydro-1H-imidazol-1-yl)-2-(4-fluoro-3,5-dimethylphenyl)-4-methyl-4,5,6,7-tetrahydro-2H-pyrazolo[4,3-c]pyridine-5-carbonyl)-5-(tetrahydro-2H-pyran-4-yl)-1H-indol-1-yl)-2-methylcyclopropyl)-1,2,4-oxadiazol-5(4H)-one] | 0.2 to 0.5 | 0.1 to 1
3 | Cc1cc(-n2nc3c(c2-n2ccn(-c4cccc(P(C)(C)=O)c4)c2=O)[C@H](C)N(C(=O)c2cc4cc(C5CCOCC5)ccc4n2[C@@]2(c4noc(=O)[nH]4)C[C@@H]2C)CC3)cc(C)c1F [Compound 109a, 3-((1S,2S)-1-(2-((S)-3-(3-(3-(dimethylphosphoryl)phenyl)-2-oxo-2,3-dihydro-1H-imidazol-1-yl)-2-(4-fluoro-3,5-dimethylphenyl)-4-methyl-4,5,6,7-tetrahydro-2H-pyrazolo[4,3-c]pyridine-5-carbonyl)-5-(tetrahydro-2H-pyran-4-yl)-1H-indol-1-yl)-2-methylcyclopropyl)-1,2,4-oxadiazol-5(4H)-one] | 0.1 to 0.2 | 0.1 to 1
4 | Cc1cc(-n2nc3c(c2-n2ccn(-c4cc(P(C)(C)=O)c5[nH]cnc5c4)c2=O)[C@H](C)N(C(=O)c2cc4cc(C5CCOCC5)ccc4n2[C@@]2(c4noc(=O)[nH]4)C[C@@H]2C)CC3)cc(C)c1F [Compound 110a, 3-((1S,2S)-1-(2-((S)-3-(3-(7-(dimethylphosphoryl)-1H-benzo[d]imidazol-5-yl)-2-oxo-2,3-dihydro-1H-imidazol-1-yl)-2-(4-fluoro-3,5-dimethylphenyl)-4-methyl-4,5,6,7-tetrahydro-2H-pyrazolo[4,3-c]pyridine-5-carbonyl)-5-(tetrahydro-2H-pyran-4-yl)-1H-indol-1-yl)-2-methylcyclopropyl)-1,2,4-oxadiazol-5(4H)-one] | 0.5 to 5 | 0.1 to 1
5 | Cc1cc(-n2nc3c(c2-n2ccn(-c4ccc(P(C)(C)=O)c(N)c4)c2=O)[C@H](C)N(C(=O)c2cc4cc(C5CCOCC5)ccc4n2[C@@]2(c4noc(=O)[nH]4)C[C@@H]2C)CC3)cc(C)c1F [Compound 111a, 3-((1S,2S)-1-(2-((S)-3-(3-(3-amino-4-(dimethylphosphoryl)phenyl)-2-oxo-2,3-dihydro-1H-imidazol-1-yl)-2-(4-fluoro-3,5-dimethylphenyl)-4-methyl-4,5,6,7-tetrahydro-2H-pyrazolo[4,3-c]pyridine-5-carbonyl)-5-(tetrahydro-2H-pyran-4-yl)-1H-indol-1-yl)-2-methylcyclopropyl)-1,2,4-oxadiazol-5(4H)-one] | < 0.1 | ≤ 0.1
6 | Cc1cc(-n2nc3c(c2-n2ccn(-c4cc(P(C)(C)=O)c5c(cnn5C)c4)c2=O)[C@H](C)N(C(=O)c2cc4cc(C5CCOCC5)ccc4n2[C@@]2(c4noc(=O)[nH]4)C[C@@H]2C)CC3)cc(C)c1F [Compound 112a, 3-((1S,2S)-1-(2-((S)-3-(3-(7-(dimethylphosphoryl)-1-methyl-1H-indazol-5-yl)-2-oxo-2,3-dihydro-1H-imidazol-1-yl)-2-(4-fluoro-3,5-dimethylphenyl)-4-methyl-4,5,6,7-tetrahydro-2H-pyrazolo[4,3-c]pyridine-5-carbonyl)-5-(tetrahydro-2H-pyran-4-yl)-1H-indol-1-yl)-2-methylcyclopropyl)-1,2,4-oxadiazol-5(4H)-one] | 0.5 to 5 | 0.1 to 1
7 | CCP(=O)(CC)c1ccc(-n2ccn(-c3c4c(nn3-c3cc(C)c(F)c(C)c3)CCN(C(=O)c3cc5cc(C6CCOCC6)ccc5n3[C@@]3(c5noc(=O)[nH]5)C[C@@H]3C)[C@H]4C)c2=O)cc1N1CCOCC1 [Compound 114a, 3-((1S,2S)-1-(2-((S)-3-(3-(4-(diethylphosphoryl)-3-morpholinophenyl)-2-oxo-2,3-dihydro-1H-imidazol-1-yl)-2-(4-fluoro-3,5-dimethylphenyl)-4-methyl-4,5,6,7-tetrahydro-2H-pyrazolo[4,3-c]pyridine-5-carbonyl)-5-(tetrahydro-2H-pyran-4-yl)-1H-indol-1-yl)-2-methylcyclopropyl)-1,2,4-oxadiazol-5(4H)-one] | 0.2 to 0.5 | 0.1 to 1
8 | CCP(=O)(CC)c1ccc(-n2ccn(-c3c4c(nn3-c3cc(C)c(F)c(C)c3)CCN(C(=O)c3cc5cc(C6CCOCC6)ccc5n3[C@@]3(c5noc(=O)[nH]5)C[C@@H]3C)[C@H]4C)c2=O)cc1NC(=O)C1CC1 [Compound 115a, N-(2-(diethylphosphoryl)-5-(3-((S)-2-(4-fluoro-3,5-dimethylphenyl)-4-methyl-5-(1-((1S,2S)-2-methyl-1-(5-oxo-4,5-dihydro-1,2,4-oxadiazol-3-yl)cyclopropyl)-5-(tetrahydro-2H-pyran-4-yl)-1H-indole-2-carbonyl)-4,5,6,7-tetrahydro-2H-pyrazolo[4,3-c]pyridin-3-yl)-2-oxo-2,3-dihydro-1H-imidazol-1-yl)phenyl)cyclopropanecarboxamide] | 0.2 to 0.5 | 0.1 to 1

Second part, the molecule after the results:

Row | EC50 [1] [nM] | EC50 [2] [nM] | SMILES
9 | 0.1 to 0.2 | 0.1 to 1 | Cc1cc(-n2nc3c(c2-n2ccn(-c4ccc(P(C)(C)=O)cc4)c2=O)[C@H](C)N(C(=O)c2cc4cc(C5CCOCC5)ccc4n2[C@@]2(c4noc(=O)[nH]4)C[C@@H]2C)CC3)cc(C)c1F [Compound 101a, 3-((1S,2S)-1-(2-((S)-3-(3-(4-(Dimethylphosphoryl)phenyl)-2-oxo-2,3-dihydro-1H-imidazol-1-yl)-2-(4-fluoro-3,5-dimethylphenyl)-4-methyl-4,5,6,7-tetrahydro-2H-pyrazolo[4,3-c]pyridine-5-carbonyl)-5-(tetrahydro-2H-pyran-4-yl)-1H-indol-1-yl)-2-methylcyclopropyl)-1,2,4-oxadiazol-5(4H)-one]
10 | < 0.1 | ≤ 0.1 | CNc1cc(-n2ccn(-c3c4c(nn3-c3cc(C)c(F)c(C)c3)CCN(C(=O)c3cc5cc(C6CCOCC6)ccc5n3[C@@]3(c5noc(=O)[nH]5)C[C@@H]3C)[C@H]4C)c2=O)ccc1P(C)(C)=O [Compound 106a, 3-((1S,2S)-1-(2-((S)-3-(3-(4-(dimethylphosphoryl)-3-(methylamino)phenyl)-2-oxo-2,3-dihydro-1H-imidazol-1-yl)-2-(4-fluoro-3,5-dimethylphenyl)-4-methyl-4,5,6,7-tetrahydro-2H-pyrazolo[4,3-c]pyridine-5-carbonyl)-5-(tetrahydro-2H-pyran-4-yl)-1H-indol-1-yl)-2-methylcyclopropyl)-1,2,4-oxadiazol-5(4H)-one]
11 | 0.2 to 0.5 | 0.1 to 1 | Cc1cc(-n2nc3c(c2-n2ccn(-c4ccc(P(C)(C)=O)c(F)c4)c2=O)[C@H](C)N(C(=O)c2cc4cc(C5CCOCC5)ccc4n2[C@@]2(c4noc(=O)[nH]4)C[C@@H]2C)CC3)cc(C)c1F [Compound 108a, 3-((1S,2S)-1-(2-((S)-3-(3-(4-(dimethylphosphoryl)-3-fluorophenyl)-2-oxo-2,3-dihydro-1H-imidazol-1-yl)-2-(4-fluoro-3,5-dimethylphenyl)-4-methyl-4,5,6,7-tetrahydro-2H-pyrazolo[4,3-c]pyridine-5-carbonyl)-5-(tetrahydro-2H-pyran-4-yl)-1H-indol-1-yl)-2-methylcyclopropyl)-1,2,4-oxadiazol-5(4H)-one]
12 | 0.2 to 0.5 | 0.1 to 1 | Cc1cc(-n2nc3c(c2-n2ccn(-c4cccc(P(C)(C)=O)n4)c2=O)[C@H](C)N(C(=O)c2cc4cc(C5CCOCC5)ccc4n2[C@@]2(c4noc(=O)[nH]4)C[C@@H]2C)CC3)cc(C)c1F [Compound 113a, 3-((1S,2S)-1-(2-((S)-3-(3-(6-(dimethylphosphoryl)pyridin-2-yl)-2-oxo-2,3-dihydro-1H-imidazol-1-yl)-2-(4-fluoro-3,5-dimethylphenyl)-4-methyl-4,5,6,7-tetrahydro-2H-pyrazolo[4,3-c]pyridine-5-carbonyl)-5-(tetrahydro-2H-pyran-4-yl)-1H-indol-1-yl)-2-methylcyclopropyl)-1,2,4-oxadiazol-5(4H)-one]
